PubChem BioAssay AID1259408 (Genetic Toxicology Data Bank (GENE-TOX), 2018)
Calls of active or inactive are those of the source. The rule behind the calls is not given here.

Tested on: GENE-TOX genotoxicity assays, various organisms and cells
Experiment: GENE-TOX mutagenicity studies
Details: for call: Assay Type: In vivo carcinogenicity studies
[1] = Species/Cell Type: Drosophila melanogaster, Assay Type: Sex-linked recessive lethal gene mutation, Assay Code: SRL+, Evaluation Type: Evaluation A (Pre-1980)
[2] = Species/Cell Type: Mouse, Sex: Male, Assay Type: Sperm morphology, Assay Code: SPI+, Evaluation Type: Evaluation A (Pre-1980)
[3] = Species/Cell Type: Neurospora crassa, Assay Type: Aneuploidy, chromosome aberrations, Assay Code: NEN-, Evaluation Type: Evaluation A (Pre-1980)
[4] = Species/Cell Type: Nonhuman, Assay Code: CCG-L, Evaluation Type: Evaluation A (Pre-1980)
[5] = Species/Cell Type: Nonhuman, Assay Type: Sister-chromatid exchange (SCE) in vitro, Assay Code: SC2+D, Dose Response: With dose response, Evaluation Type: Evaluation A (Pre-1980)
[6] = Species/Cell Type: Nonhuman, Assay Type: Sister-chromatid exchange (SCE) in vivo, Assay Code: SC3+D, Dose Response: With dose response, Evaluation Type: Evaluation B (Post-1980)
[7] = Species/Cell Type: Saccharomyces cerevisiae, Assay Type: Mitotic recombination or gene conversion, Assay Code: YEH+, Evaluation Type: Evaluation A (Pre-1980)
[8] = Species/Cell Type: Salmonella typhimurium (one or more of the five standard strains: TA98, TA100, TA1535, TA1537, and TA1538), Assay Type: Histidine reverse gene mutation, Ames assay, Assay Code: SAL+, Evaluation Type: Evaluation A (Pre-1980)
[9] = Species/Cell Type: Bacillus subtilis (H17 vs M45), Assay Type: Rec-assay, spot test, DNA effects (bacterial DNA repair), Assay Code: REW-, Evaluation Type: Evaluation A (Pre-1980)
[10] = Species/Cell Type: Salmonella typhimurium (one or more of the five standard strains: TA98, TA100, TA1535, TA1537, and TA1538), Assay Type: Histidine reverse gene mutation, Ames assay, Assay Code: SAL-, Evaluation Type: Evaluation A (Pre-1980)
[11] = Species/Cell Type: Nonhuman, Assay Type: Sister-chromatid exchange (SCE) in vitro, Assay Code: SC2+, Evaluation Type: Evaluation B (Post-1980)
[12] = Species/Cell Type: Salmonella typhimurium (one or more of the five standard strains: TA98, TA100, TA1535, TA1537, and TA1538), Assay Type: Histidine reverse gene mutation, Ames assay, Assay Code: SAL+*, Activation: With metabolic activation, Evaluation Type: Evaluation A (Pre-1980)
[13] = Species/Cell Type: Escherichia coli WP2 UVRA, Assay Type: Tryptophan reverse gene mutation, Assay Code: WPU-*, Activation: With metabolic activation, Evaluation Type: Evaluation A (Pre-1980)
[14] = Species/Cell Type: Human diploid fibroblasts, Assay Type: Unscheduled DNA synthesis (UDS) in vitro, DNA effects, Assay Code: UDH-, Evaluation Type: Evaluation A (Pre-1980)
[15] = Species/Cell Type: Mammalian polychromatic erythrocytes, Assay Type: Micronucleus test, chromosome aberrations, Assay Code: MNTT, Evaluation Type: Evaluation B (Post-1980)

SMILES: CCN(CC)CCNc1ccc(CO)c2sc3ccccc3c(=O)c12
- mutagenic call [1]: active; positive
- mutagenic call (Species/Cell Type: Drosophila melanogaster, Assay Type: Sex-linked recessive lethal gene mutation, Assay Code: SRLT, Evaluation Type: Evaluation A (Pre-1980)): no conclusion
- mutagenic call (Species/Cell Type: Drosophila melanogaster, Sex: Male, Assay Type: Heritable translocation test, chromosome aberrations, Assay Code: DHT-, Evaluation Type: Evaluation A (Pre-1980)): inactive; negative
- mutagenic call (Species/Cell Type: Fischer rat embryo (RLV/1706) cells, Assay Type: Cell transformation, viral enhanced, Assay Code: CTR+, Evaluation Type: Evaluation A (Pre-1980)): active; positive
- mutagenic call (Species/Cell Type: Glycine max (soybean), Assay Type: Gene mutation, Assay Code: GLM-, Evaluation Type: Evaluation A (Pre-1980)): inactive; negative
- mutagenic call (Species/Cell Type: Mammalian polychromatic erythrocytes, Assay Type: Micronucleus test, chromosome aberrations, Assay Code: MNT+, Evaluation Type: Evaluation A (Pre-1980)): active; positive
- mutagenic call (Species/Cell Type: Mouse (C3H/10T1/2) cells, Assay Type: Cell transformation, Assay Code: CTH+, Evaluation Type: Evaluation A (Pre-1980)): active; positive
- mutagenic call (Species/Cell Type: Mouse germ cells, Sex: Male, Assay Type: Unscheduled DNA synthesis (UDS) in vivo, DNA effects, Assay Code: UDT+, Evaluation Type: Evaluation A (Pre-1980)): active; positive
- mutagenic call (Species/Cell Type: Mouse lymphoma (L5178Y) cells, Assay Type: Forward gene mutation at the thymidine kinase (TK) locus, chromosome aberrations, Assay Code: L51+, Evaluation Type: Evaluation A (Pre-1980)): active; positive
- mutagenic call (Species/Cell Type: Mouse, Sex: Female, Assay Type: Spot test, gene mutation, Assay Code: MSTT, Evaluation Type: Evaluation A (Pre-1980)): no conclusion
- mutagenic call (Species/Cell Type: Mouse, Sex: Male, Assay Type: Specific locus test, gene mutation, Assay Code: SLT-, Evaluation Type: Evaluation A (Pre-1980)): inactive; negative
- mutagenic call [2]: active; positive
- mutagenic call [3]: inactive; negative
- mutagenic call (Species/Cell Type: Neurospora crassa, Assay Type: Forward gene mutation, Assay Code: NEF+, Evaluation Type: Evaluation A (Pre-1980)): active; positive
- mutagenic call (Species/Cell Type: Nonhuman bone marrow, Assay Type: Chromosome aberrations, in vivo, Assay Code: CY#T, Evaluation Type: Evaluation A (Pre-1980)): no conclusion
- mutagenic call (Species/Cell Type: Nonhuman, Assay Type: Chromosome aberrations in vitro, Assay Code: CY&T, Evaluation Type: Evaluation A (Pre-1980)): no conclusion
- call [4]: inactive; negative
- mutagenic call [5]: active; positive
- mutagenic call [6]: active; positive
- mutagenic call (Species/Cell Type: Rodents, Sex: Male, Assay Type: Dominant lethal test, Assay Code: DLT+, Evaluation Type: Evaluation A (Pre-1980)): active; positive
- mutagenic call (Species/Cell Type: Rodents, Sex: Male, Assay Type: Dominant lethal test, Assay Code: DLT-, Evaluation Type: Evaluation A (Pre-1980)): inactive; negative
- mutagenic call (Species/Cell Type: Saccharomyces cerevisiae, Assay Type: Mitotic recombination or gene conversion, Assay Code: YEC+, Evaluation Type: Evaluation A (Pre-1980)): active; positive
- mutagenic call [7]: active; positive
- mutagenic call (Species/Cell Type: Saccharomyces cerevisiae, Assay Type: Reverse gene mutation, Assay Code: YER+, Evaluation Type: Evaluation A (Pre-1980)): active; positive
- mutagenic call [8]: active; positive
- mutagenic call (Species/Cell Type: Salmonella typhimurium, Assay Type: Forward and reverse gene mutation, body fluid assay, Assay Code: BFU+, Evaluation Type: Evaluation A (Pre-1980)): active; positive
- mutagenic call (Species/Cell Type: Salmonella typhimurium, Assay Type: Forward and reverse gene mutation, host-mediated assay, Assay Code: HMA+, Evaluation Type: Evaluation A (Pre-1980)): active; positive
- mutagenic call (Species/Cell Type: Schizosaccharomyces pombe, Assay Type: Forward gene mutation, Assay Code: YEY+, Evaluation Type: Evaluation A (Pre-1980)): active; positive
- mutagenic call (Species/Cell Type: Syrian hamster embryo (SHE) cells, Assay Type: Cell transformation, clonal assay, Assay Code: CTC+, Evaluation Type: Evaluation A (Pre-1980)): active; positive

SMILES: CCN(Cc1cccc(S(=O)(=O)O)c1)c1ccc(C(=C2C=CC(=[N+](CC)Cc3cccc(S(=O)(=O)O)c3)C=C2)c2ccccc2S(=O)(=O)[O-])cc1
- mutagenic call [9]: inactive; negative
- mutagenic call [10]: inactive; negative

SMILES: Cc1cc(/C=C/c2ccc3cc(N(C)C)ccc3[n+]2C)c(C)n1-c1ccccc1
- mutagenic call [11]: active; positive
- mutagenic call [12]: active; positive

SMILES: S=C=S
- mutagenic call (Species/Cell Type: Human, Sex: Male, Assay Type: Sperm morphology, Assay Code: SPH+, Evaluation Type: Evaluation A (Pre-1980)): active; positive

SMILES: O.O.O.O.O.O.[Cl-].[Cl-].[Ni+2]
- mutagenic call [11]: active; positive

SMILES: [Cl][Bi]([Cl])[Cl]
- mutagenic call [9]: inactive; negative

SMILES: COP(=O)(NC(C)=O)SC (stereo not drawn)
- mutagenic call (Species/Cell Type: Bacillus subtilis (H17 vs M45), Assay Type: Rec-assay, spot test, DNA effects (bacterial DNA repair), Assay Code: REWT, Evaluation Type: Evaluation A (Pre-1980)): no conclusion
- mutagenic call (Species/Cell Type: Drosophila melanogaster, Assay Type: Sex-linked recessive lethal gene mutation, Assay Code: SRL-, Evaluation Type: Evaluation A (Pre-1980)): inactive; negative
- mutagenic call [13]: inactive; negative
- mutagenic call (Species/Cell Type: Escherichia coli polA (W3119 vs P3478), Assay Type: Rec-assay, DNA effects (bacterial DNA repair), Assay Code: RE1T, Evaluation Type: Evaluation A (Pre-1980)): no conclusion
- mutagenic call [14]: inactive; negative
- mutagenic call [15]: no conclusion
- mutagenic call [3]: inactive; negative
- mutagenic call (Species/Cell Type: Nonhuman, Assay Type: Sister-chromatid exchange (SCE) in vivo, Assay Code: SC3T, Evaluation Type: Evaluation B (Post-1980)): no conclusion
- mutagenic call [7]: active; positive
- mutagenic call [10]: inactive; negative

SMILES: C=CC(OC(C)=O)c1ccc(OC)c2ccccc12 (stereo not drawn)
- mutagenic call [8]: active; positive

SMILES: [Cl][Sn][Cl]
- mutagenic call [9]: inactive; negative
- mutagenic call [13]: inactive; negative
- call [4]: inactive; negative
- mutagenic call (Species/Cell Type: Nonhuman, Assay Type: Sister-chromatid exchange (SCE) in vitro, Assay Code: SC2-, Evaluation Type: Evaluation B (Post-1980)): inactive; negative

SMILES: O=P(OCC(Br)CBr)(OCC(Br)CBr)OCC(Br)CBr (stereo not drawn)
- mutagenic call (Species/Cell Type: Chinese hamster lung (V79) cells, Assay Type: Forward gene mutation, host-mediated assay, Assay Code: HMG+, Evaluation Type: Evaluation A (Pre-1980)): active; positive
- mutagenic call [1]: active; positive
- mutagenic call (Species/Cell Type: Drosophila melanogaster, Sex: Male, Assay Type: Heritable translocation test, chromosome aberrations, Assay Code: DHT+, Evaluation Type: Evaluation A (Pre-1980)): active; positive
- mutagenic call (Species/Cell Type: Human, Assay Type: Sister-chromatid exchange (SCE) in vitro, Assay Code: SC1+, Evaluation Type: Evaluation B (Post-1980)): active; positive
- mutagenic call (Species/Cell Type: Mammalian polychromatic erythrocytes, Assay Type: Micronucleus test, chromosome aberrations, Assay Code: MNT+, Evaluation Type: Evaluation B (Post-1980)): active; positive
- mutagenic call [2]: active; positive
- call (Species/Cell Type: Nonhuman, Assay Code: CCG+, Evaluation Type: Evaluation A (Pre-1980)): active; positive
- mutagenic call [5]: active; positive
- mutagenic call (Species/Cell Type: Nonhuman, Assay Type: Sister-chromatid exchange (SCE) in vivo, Assay Code: SC3+D, Dose Response: With dose response, Evaluation Type: Evaluation A (Pre-1980)): active; positive
- mutagenic call [8]: active; positive

SMILES: CCCCCCCCCCCCCC(=O)N(O)c1ccc2c(c1)Cc1ccccc1-2
- mutagenic call [14]: inactive; negative
- mutagenic call [8]: active; positive

SMILES: O=C(c1ccccc1)C(O)c1ccccc1 (stereo not drawn)
- call [4]: inactive; negative

SMILES: CC(C)(C)N(CCCCO)N=O
- mutagenic call (Species/Cell Type: Salmonella typhimurium (one or more of the five standard strains: TA98, TA100, TA1535, TA1537, and TA1538), Assay Type: Histidine reverse gene mutation, Ames assay, Assay Code: SALT, Evaluation Type: Evaluation A (Pre-1980)): no conclusion

SMILES: CC1=C(/C=C/C(C)=C/C=C/C(C)=C/C(=O)O)C(C)(C)CCC1
- mutagenic call (Species/Cell Type: Human, Assay Type: Sister-chromatid exchange (SCE) in vitro, Assay Code: SC1+D, Dose Response: With dose response, Evaluation Type: Evaluation A (Pre-1980)): active; positive
- mutagenic call (Species/Cell Type: Nonhuman, Assay Type: Sister-chromatid exchange (SCE) in vitro, Assay Code: SC2T, Evaluation Type: Evaluation B (Post-1980)): no conclusion

SMILES: O=Nc1ccc2ccccc2c1
- mutagenic call [8]: active; positive

SMILES: OCN1CCN(CO)C1=S
- mutagenic call [15]: no conclusion

SMILES: CC(=O)OCC[C@H](C=O)c1c(O)cc2c(c1O)C(=O)c1c(O)cc(O)cc1C2=O
- mutagenic call [12]: active; positive

SMILES: O=c1[nH]cccc1[N+](=O)[O-]
- mutagenic call [8]: active; positive

SMILES: [As]
- mutagenic call (Species/Cell Type: Human lymphocytes, Assay Type: Sister-chromatid exchange (SCE) in vivo, Assay Code: SCY+, Evaluation Type: Evaluation B (Post-1980)): active; positive

SMILES: O[C@@H]([C@H](O)[C@H](O)CBr)[C@H](O)CBr
- mutagenic call [6]: active; positive
